Assay type in all cases: cell-based
In test [1] the target is T1, BRAF V600E (Homo sapiens, UniProt P15056, V600E).
T1 construct: endogenous C-terminal HiBiT fusion tag on BRAF V600E allele; endogenous in cells; host or cells: A375 clone 1F10 (CRISPR-Cas9 knock-in of the HiBiT tag; parental A375 from ATCC)
Description: BRAF HiBiT degradation assay, C-terminal HiBiT-tagged BRAF V600E A375 cells (clone 1F10), Nano-Glo HiBiT Lytic assay. Particulars: for Dmax: A-375. An outline of the steps: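 Degradation is measured as loss of HiBiT signal from BRAF V600E tagged at its native locus in A375 cells. Doses span 1 μM to 0.01 nM in half-log steps, in duplicate. Percent remaining is calculated against DMSO controls after subtracting untagged A375 background, and curve fitting yields DC50 and observed Dmax.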
For orientation: The HiBiT peptide binds its large partner to form an active luciferase.

In test [2] the target is T2, BRAF G466V (Homo sapiens, UniProt P15056, G466V).
T2 construct: Horizon Discovery (HCT-116 BRAF−/− cells); host or cells: HCT-116 BRAF−/− cells, clone 8, lentiviral transduction
T2 sequence (P15056 whole entry G466V): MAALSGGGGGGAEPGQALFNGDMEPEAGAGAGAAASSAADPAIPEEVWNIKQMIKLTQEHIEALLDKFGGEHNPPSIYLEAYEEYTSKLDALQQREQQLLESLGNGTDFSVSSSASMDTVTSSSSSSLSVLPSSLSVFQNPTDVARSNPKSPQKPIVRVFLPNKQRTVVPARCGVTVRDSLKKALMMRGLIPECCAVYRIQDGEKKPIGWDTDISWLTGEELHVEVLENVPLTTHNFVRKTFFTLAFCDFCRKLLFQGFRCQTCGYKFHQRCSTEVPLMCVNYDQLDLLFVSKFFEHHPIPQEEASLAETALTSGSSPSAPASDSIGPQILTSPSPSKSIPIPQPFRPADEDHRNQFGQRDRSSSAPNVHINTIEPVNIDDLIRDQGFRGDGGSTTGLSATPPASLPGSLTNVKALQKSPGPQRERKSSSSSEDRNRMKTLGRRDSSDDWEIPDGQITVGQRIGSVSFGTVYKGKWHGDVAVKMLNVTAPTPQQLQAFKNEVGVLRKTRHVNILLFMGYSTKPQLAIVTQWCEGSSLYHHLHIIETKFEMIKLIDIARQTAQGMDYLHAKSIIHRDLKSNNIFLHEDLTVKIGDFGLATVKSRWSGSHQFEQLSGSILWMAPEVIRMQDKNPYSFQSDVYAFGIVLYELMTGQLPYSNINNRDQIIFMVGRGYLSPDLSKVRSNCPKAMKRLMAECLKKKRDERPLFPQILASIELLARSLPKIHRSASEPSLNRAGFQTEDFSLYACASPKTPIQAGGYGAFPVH
Description: BRAF HiBiT degradation assay, C-terminal HiBiT-tagged BRAF G466V overexpressed in HCT-116 BRAF−/− cells (clone 8), Nano-Glo HiBiT Lytic assay. Put shortly:
(§1)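 First, the stable HiBiT-tagged cells were plated and incubated for 24 h. Next, compound was added in duplicate as an 11-point series with a 1 μM top concentration. Lytic detection followed, with DMSO-treated parental cells used for background. Finally, DC50 and Obs. Dmax relative to DMSO were derived from the % protein remaining curves.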

Test [3] concerns the target T3, BRAF G469A (Homo sapiens, UniProt P15056, G469A).
T3 construct: Horizon Discovery (HCT-116 BRAF−/− cells); host or cells: HCT-116 BRAF−/− cells, clone 34, lentiviral transduction
Description: BRAF HiBiT degradation assay, C-terminal HiBiT-tagged BRAF G469A overexpressed in HCT-116 BRAF−/− cells (clone 34), Nano-Glo HiBiT Lytic assay. An outline of the steps:
as §1

The target in test [4] is T4, BRAF D594G (Homo sapiens, UniProt P15056, D594G).
T4 construct: Horizon Discovery (HCT-116 BRAF−/− cells); host or cells: HCT-116 BRAF−/− cells, clone 63, lentiviral transduction
T4 sequence (P15056 whole entry D594G): as the sequence (P15056 whole entry G466V) above, with V466G, D594G counted along it
In words: BRAF HiBiT degradation assay, C-terminal HiBiT-tagged BRAF D594G overexpressed in HCT-116 BRAF−/− cells (clone 63), Nano-Glo HiBiT Lytic assay. Put shortly: as §1

The mark [5] stands for this setting: A375 (BRAF V600E), DC50 at 50%: fitted conc. at Y=50.
The mark [6] stands for this setting: A375 (BRAF V600E), percentage protein degraded at maximal compound effect relative to DMSO.
[7] abbreviates: BRAF G466V, DC50 at 50%: fitted conc. at Y=50.
The mark [8] stands for this setting: HCT-116, BRAF G466V, percentage protein degraded at maximal compound effect relative to DMSO.
[9] abbreviates: Class 2, BRAF G469A, DC50 at 50%: fitted conc. at Y=50.
Where [10] appears, read: HCT-116, Class 2, BRAF G469A, percentage protein degraded at maximal compound effect relative to DMSO.
Setting [11] is: BRAF D594G, DC50 at 50%: fitted conc. at Y=50.
Setting [12] is: HCT-116, BRAF D594G, percentage protein degraded at maximal compound effect relative to DMSO.
[13] abbreviates: A375 (BRAF V600E, Class 1), DC50 at 50% degradation.
Where [14] appears, read: A375 (BRAF V600E, Class 1), observed Dmax, % protein degraded relative to DMSO control.
Setting [15] is: BRAF G466V (Class 3), HCT-116 BRAF−/− cells, DC50 at 50% degradation.
[16] abbreviates: BRAF G466V (Class 3), HCT-116 BRAF−/− cells, observed Dmax relative to DMSO control.
[17] abbreviates: BRAF G469A (Class 2), HCT-116 BRAF−/− cells, DC50 at 50% degradation.
The mark [18] stands for this setting: BRAF G469A (Class 2), HCT-116 BRAF−/− cells, observed Dmax relative to DMSO control.
Setting [19] is: BRAF D594G (Class 3), HCT-116 BRAF−/− cells, DC50 at 50% degradation.
Setting [20] is: BRAF D594G (Class 3), HCT-116 BRAF−/− cells, observed Dmax relative to DMSO control.

The term DC50 denotes the midpoint of the concentration-degradation curve. Read a low DC50 as a more potent degrader. What is called Dmax is the greatest extent of degradation seen. Read a low Dmax as shallow degradation.

T3 sequence (P15056 whole entry G469A): as the sequence (P15056 whole entry G466V) above, with V466G, G469A counted along it
T1 sequence (P15056 whole entry V600E, the tested form may be a part): as the sequence (P15056 whole entry G466V) above, with V466G, V600E counted along it

Take `CCCS(=O)(=O)Nc1cccc(-c2nc(C(C)(C)C)sc2-c2ccnc(Nc3ccc(N4CCN(C(=O)CC5(O)CCN(c6ccc(NC7CCC(=O)NC7=O)cc6F)CC5)CC4)c(F)c3)n2)c1F` (racemic) [Compound 52, Rac-N-{3-[2-tert-butyl-5-(2-{[4-(4-{2-[1-(4-{[(3R)-2,6-dioxopiperidin-3-yl]amino}-2-fluorophenyl)-4-hydroxypiperidin-4-yl]acetyl}piperazin-1-yl)-3-fluorophenyl]amino}pyrimidin-4-yl)-1,3-thiazol-4-yl]-2-fluorophenyl}propane-1-sulfonamide]: the half-maximal degradation concentration (DC50) in test [1] (setting [5]) was less than 0.01 µM; in test [2] (setting [7]), greater than 0.5 µM; in test [3] (setting [9]), greater than 0.5 µM; in test [4] (setting [11]), greater than 0.5 µM. The Dmax is greater than 70% in test [1] (setting [6]), less than 30% in test [2] (setting [8]), less than 30% in test [3] (setting [10]) and less than 30% in test [4] (setting [12]).

As to `O=C1CCC(c2c(F)cc(N3CCC(CN4CCN(c5ccc(-n6cc(-c7cc(Cl)cc(NS(=O)(=O)N8CCCC8)c7F)c(-c7ccncc7)n6)cc5)CC4)CC3)cc2F)C(=O)N1` (racemic) [Compound 387, Rac-N-{5-chloro-3-[1-(4-{4-[(1-{4-[(3R)-2,6-dioxopiperidin-3-yl]-3,5-difluorophenyl}piperidin-4-yl)methyl]piperazin-1-yl}phenyl)-3-(pyridin-4-yl)-1H-pyrazol-4-yl]-2-fluorophenyl}pyrrolidine-1-sulfonamide], the DC50 in test [1] (setting [13]) was 0.01 to 0.05 µM; in test [2] (setting [15]) it was less than 0.01 µM; in test [3] (setting [17]), 0.01 to 0.05 µM; in test [4] (setting [19]), less than 0.01 µM. For the same compound, the Dmax in test [1] (setting [14]) is greater than 70%; in test [2] (setting [16]) it was greater than 70%; in test [3] (setting [18]), 30 to 70%; in test [4] (setting [20]) it was 30 to 70%.

As to `CCCS(=O)(=O)Nc1cccc(-c2cn(C3CCN(C(=O)C4CCN(CC5CCN(c6ccc(C7CCC(=O)NC7=O)cn6)CC5)CC4)CC3)nc2-c2ccncc2)c1F` (racemic) [Compound 6, Rac-N-{3-[1-(1-{1-[(1-{5-[(3R)-2,6-dioxopiperidin-3-yl]pyridin-2-yl}piperidin-4-yl)methyl]piperidine-4-carbonyl}piperidin-4-yl)-3-(pyridin-4-yl)-1H-pyrazol-4-yl]-2-fluorophenyl}propane-1-sulfonamide], the DC50 is 0.01 to 0.05 µM in test [1] (setting [5]), greater than 0.5 µM in test [2] (setting [7]), greater than 0.5 µM in test [3] (setting [9]) and greater than 0.5 µM in test [4] (setting [11]). The Dmax was greater than 70% in test [1] (setting [6]), 30 to 70% in test [2] (setting [8]), less than 30% in test [3] (setting [10]) and 30 to 70% in test [4] (setting [12]).

In the case of `O=C1CC[C@H](c2ccc(N3CCC(CN4CCN(c5ccc(-n6cc(-c7cc(Cl)cc(NS(=O)(=O)C8CCCC8)c7F)c(-c7ccncc7)n6)cc5)CC4)CC3)cc2)C(=O)N1` [Compound 374, N-{5-chloro-3-[1-(4-{4-[(1-{4-[(3R)-2,6-dioxopiperidin-3-yl]phenyl}piperidin-4-yl)methyl]piperazin-1-yl}phenyl)-3-(pyridin-4-yl)-1H-pyrazol-4-yl]-2-fluorophenyl}cyclopentanesulfonamide], the DC50 in test [1] (setting [13]) was less than 0.01 µM; in test [2] (setting [15]), 0.01 to 0.05 µM; in test [3] (setting [17]), 0.01 to 0.05 µM; in test [4] (setting [19]), 0.01 to 0.05 µM. The Dmax in test [1] (setting [14]) is greater than 70%; in test [2] (setting [16]) it was greater than 70%; in test [3] (setting [18]), 30 to 70%; in test [4] (setting [20]), 30 to 70%.

For `CCN(C)S(=O)(=O)Nc1cc(Cl)cc(-c2cn(-c3ccc(N4CCN(CC5CCN(c6ccc(N7CCC(=O)NC7=O)cc6)CC5)CC4)cc3)nc2-c2ccncc2)c1F` [Compound 307, 1-(4-{4-[(4-{4-[4-(5-chloro-3-{[ethyl(methyl)sulfamoyl]amino}-2-fluorophenyl)-3-(pyridin-4-yl)-1H-pyrazol-1-yl]phenyl}piperazin-1-yl)methyl]piperidin-1-yl}phenyl)-1,3-diazinane-2,4-dione], the DC50 in test [1] (setting [13]) was less than 0.01 µM; in test [2] (setting [15]), less than 0.01 µM; in test [3] (setting [17]), 0.05 to 0.5 µM; in test [4] (setting [19]), 0.01 to 0.05 µM. For the same compound, the greatest degradation seen (Dmax) in test [1] (setting [14]) is greater than 70%; in test [2] (setting [16]) it was greater than 70%; in test [3] (setting [18]), 30 to 70%; in test [4] (setting [20]), 30 to 70%.

As for `O=C1CCC(c2ccc(N3CCC(CN4CCN(c5ccc(-n6cc(-c7cc(Cl)cc(NS(=O)(=O)N8CC(F)C8)c7F)c(-c7ccncc7)n6)c(F)c5)CC4)CC3)nc2)C(=O)N1` (racemic) [Compound 337, Rac-N-{5-chloro-3-[1-(4-{4-[(1-{5-[(3R)-2,6-dioxopiperidin-3-yl]pyridin-2-yl}piperidin-4-yl)methyl]piperazin-1-yl}-2-fluorophenyl)-3-(pyridin-4-yl)-1H-pyrazol-4-yl]-2-fluorophenyl}-3-fluoroazetidine-1-sulfonamide], the DC50 is less than 0.01 µM in test [1] (setting [13]), less than 0.01 µM in test [2] (setting [15]), 0.01 to 0.05 µM in test [3] (setting [17]) and less than 0.01 µM in test [4] (setting [19]). The Dmax was greater than 70% in test [1] (setting [14]), greater than 70% in test [2] (setting [16]), 30 to 70% in test [3] (setting [18]) and 30 to 70% in test [4] (setting [20]).

With `CCCS(=O)(=O)Nc1cccc(-c2nc(C3CCC4(CC3)CN(C(=O)CC3CCN(C5CCN(c6ccc7c(c6)C(=O)N(C6CCC(=O)NC6=O)C7=O)CC5)CC3)C4)sc2-c2ccnc(N)n2)c1F` (racemic) [Compound 247, Rac-N-{3-[5-(2-aminopyrimidin-4-yl)-2-{2-[2-(1′-{2-[(3R)-2,6-dioxopiperidin-3-yl]-1,3-dioxo-2,3-dihydro-1H-isoindol-5-yl}-[1,4′-bipiperidin]-4-yl)acetyl]-2-azaspiro[3.5]nonan-7-yl}-1,3-thiazol-4-yl]-2-fluorophenyl}propane-1-sulfonamide], the DC50 in test [1] (setting [13]) was 0.01 to 0.05 µM; in test [2] (setting [15]), greater than 0.5 µM; in test [3] (setting [17]) it was greater than 0.5 µM; in test [4] (setting [19]), greater than 0.5 µM. The Dmax in test [1] (setting [14]) was greater than 70%; in test [2] (setting [16]), 30 to 70%; in test [3] (setting [18]), less than 30%; in test [4] (setting [20]) it was 30 to 70%.

Consider `CCCS(=O)(=O)Nc1cccc(-c2nc(C(C)(C)C)sc2-c2ccnc(Nc3cnn(CC4CCN(CC5CCN(c6ccc7c(=O)n(C8CCC(=O)NC8=O)ccc7c6)CC5)CC4)c3)n2)c1F` (racemic) [Compound 83, Rac-N-{3-[2-tert-butyl-5-(2-{[1-({1-[(1-{2-[(3R)-2,6-dioxopiperidin-3-yl]-1-oxo-1,2-dihydroisoquinolin-6-yl}piperidin-4-yl)methyl]piperidin-4-yl}methyl)-1H-pyrazol-4-yl]amino}pyrimidin-4-yl)-1,3-thiazol-4-yl]-2-fluorophenyl}propane-1-sulfonamide], for which the DC50 was less than 0.01 µM in test [1] (setting [5]), 0.05 to 0.5 µM in test [2] (setting [7]), 0.05 to 0.5 µM in test [3] (setting [9]) and 0.05 to 0.5 µM in test [4] (setting [11]). Also, the greatest degradation seen (Dmax) in test [1] (setting [6]) was greater than 70%; in test [2] (setting [8]), less than 30%; in test [3] (setting [10]) it was less than 30%; in test [4] (setting [12]), less than 30%.

Regarding `CCCS(=O)(=O)Nc1cccc(-c2cn(-c3ccc(N4CCN(CC5CCN(c6ccc(C7CCC(=O)NC7=O)cc6F)CC5)CC4)cc3)nc2-c2ccncc2)c1F` (racemic) [Compound 18, Rac-N-{3-[1-(4-{4-[(1-{4-[(3R)-2,6-dioxopiperidin-3-yl]-2-fluorophenyl}piperidin-4-yl)methyl]piperazin-1-yl}phenyl)-3-(pyridin-4-yl)-1H-pyrazol-4-yl]-2-fluorophenyl}propane-1-sulfonamide], the DC50 in test [1] (setting [5]) is 0.01 to 0.05 µM; in test [2] (setting [7]), 0.01 to 0.05 µM; in test [3] (setting [9]), greater than 0.5 µM; in test [4] (setting [11]) it was 0.01 to 0.05 µM. The Dmax in test [1] (setting [6]) was greater than 70%; in test [2] (setting [8]), 30 to 70%; in test [3] (setting [10]), 30 to 70%; in test [4] (setting [12]), 30 to 70%.

The values above are taken from patent US20260317324A1, “BIFUNCTIONAL COMPOUNDS FOR DEGRADING BRAF VIA UBIQUITIN PROTEOSOME PATHWAY” (Nurix Therapeutics, Inc., priority 2023, published 2026).
